Assay results reported in patent EP1054888B1 (priority 1998, dated 1999).
≈ marks a conversion by molar mass, not a printed value.

Tests used:
Assay in all cases: microbe, parasite or virus in culture
Assay type in all cases: cell-based
[1] = test system: Magnaporthe grisea f. sp. oryzae; conditions: Pyricularia oryzae, read-out: MIC (Minimum Inhibitory Concentration) PYRIOR, Table II; total inhibition of mycelial growth, V8 juice nutrient solution, 6-12 days at 18-25°C, visual inspection
Pyrenophora teres = conditions: read-out: MIC (Minimum Inhibitory Concentration) PYRNTE
Phytophthora infestans = conditions: read-out: MIC (Minimum Inhibitory Concentration) PHYTIN
Leptosphaeria nodorum = conditions: Parastagonospora nodorum, read-out: MIC (Minimum Inhibitory Concentration) LEPTNO
Rhizoctonia solani = conditions: read-out: MIC (Minimum Inhibitory Concentration) RHIZSO
Botrytis cinerea = conditions: read-out: MIC (Minimum Inhibitory Concentration) BOTRCI
Alternaria solani = conditions: read-out: MIC (Minimum Inhibitory Concentration) ALTESO

| Structure (SMILES) | MIC [1] | MIC (Pyrenophora teres) | MIC (Phytophthora infestans) | MIC (Leptosphaeria nodorum) | MIC (Rhizoctonia solani) | MIC (Botrytis cinerea) | MIC (Alternaria solani) |
| --- | --- | --- | --- | --- | --- | --- | --- |
| CCCCCCc1c(-c2c(F)cccc2Cl)c(Cl)nc2ncnn12 [Example 1, 5-chloro-7-n-hexyl-6-(2-chloro-6-fluorophenyl)-1,2,4-triazolo[1,5a]pyrimidine] | 1.56 µg/mL (≈ 4.25 µM) | 3.13 µg/mL (≈ 8.52 µM) | 100 µg/mL (≈ 272 µM) | 12.5 µg/mL (≈ 34 µM) | – | – | – |
| CC1CCC(c2c(-c3c(F)cccc3Cl)c(Cl)nc3ncnn23)CC1 (centres unmarked) [Example 2, 5-chloro-7-(4-methylcyclohexyl)-6-(2-chloro-6-fluorophenyl)-1,2,4-triazolo[1,5a]pyrimidine] | < 0.05 µg/mL | 1.56 µg/mL (≈ 4.11 µM) | > 100 µg/mL | – | > 100 µg/mL | 0.2 µg/mL (≈ 0.527 µM) | 0.1 µg/mL (≈ 0.264 µM) |
| CN1C=C(c2c(-c3c(F)cc(F)cc3F)c(Cl)nc3ncnn23)CCC1 [Example 6, 5-chloro-7-(N-methyl-2,3-dehydropiperid-3-yl)-6-(2,4,6-trifluorophenyl)-1,2,4-triazolo[1,5a]pyrimidine] | 0.78 µg/mL (≈ 2.05 µM) | – | > 100 µg/mL | 25 µg/mL (≈ 65.8 µM) | > 100 µg/mL | 25 µg/mL (≈ 65.8 µM) | 3.13 µg/mL (≈ 8.24 µM) |
| COc1nc2ncnn2c(C2CCCCC2)c1-c1c(F)cccc1F [Example 7, 5-methoxy-7-cyclohexyl-6-(2,6-difluorophenyl)-1,2,4-triazolo[1,5a]pyrimidine] | 1.56 µg/mL (≈ 4.53 µM) | > 100 µg/mL | > 100 µg/mL | > 100 µg/mL | > 100 µg/mL | 12.5 µg/mL (≈ 36.3 µM) | 1.56 µg/mL (≈ 4.53 µM) |
| CCCCc1c(-c2ccccc2C)c(Cl)nc2ncnn12 [Example 19] | 0.78 µg/mL (≈ 2.59 µM) | 6.25 µg/mL (≈ 20.8 µM) | 50 µg/mL (≈ 166 µM) | 12.5 µg/mL (≈ 41.6 µM) | > 100 µg/mL | 12.5 µg/mL (≈ 41.6 µM) | 1.56 µg/mL (≈ 5.19 µM) |
| CCCCc1c(-c2ccccc2Cl)c(Cl)nc2ncnn12 [Example 20] | < 0.05 µg/mL | 3.13 µg/mL (≈ 9.74 µM) | > 100 µg/mL | 3.13 µg/mL (≈ 9.74 µM) | 3.13 µg/mL (≈ 9.74 µM) | 1.56 µg/mL (≈ 4.86 µM) | 0.2 µg/mL (≈ 0.623 µM) |
| CCCCc1c(-c2ccccc2F)c(Cl)nc2ncnn12 [Example 21] | < 0.05 µg/mL | 0.78 µg/mL (≈ 2.56 µM) | 100 µg/mL (≈ 328 µM) | 3.13 µg/mL (≈ 10.3 µM) | 3.13 µg/mL (≈ 10.3 µM) | 1.56 µg/mL (≈ 5.12 µM) | 0.1 µg/mL (≈ 0.328 µM) |
| CCCCc1c(-c2c(F)cccc2F)c(Cl)nc2ncnn12 [Example 22] | 0.1 µg/mL (≈ 0.31 µM) | 6.25 µg/mL (≈ 19.4 µM) | > 100 µg/mL | 1.56 µg/mL (≈ 4.83 µM) | 1.56 µg/mL (≈ 4.83 µM) | 1.56 µg/mL (≈ 4.83 µM) | 0.1 µg/mL (≈ 0.31 µM) |
| CCCCc1c(-c2ccccc2)c(Cl)nc2ncnn12 [Example 23] | 25 µg/mL (≈ 87.2 µM) | > 100 µg/mL | 50 µg/mL (≈ 174 µM) | > 100 µg/mL | > 100 µg/mL | > 100 µg/mL | 6.25 µg/mL (≈ 21.8 µM) |
| Fc1cccc(Cl)c1-c1c(F)nc2ncnn2c1C1CCCCC1 [Example 37] | – | > 100 µg/mL | > 100 µg/mL | > 100 µg/mL | > 100 µg/mL | – | – |
| COc1nc2ncnn2c(C2CCCCC2)c1-c1c(F)cc(F)cc1F [Example 49] | 0.39 µg/mL (≈ 1.08 µM) | 1.56 µg/mL (≈ 4.31 µM) | > 100 µg/mL | > 100 µg/mL | > 100 µg/mL | – | 0.2 µg/mL (≈ 0.552 µM) |
| COc1cc(F)c(-c2c(Cl)nc3ncnn3c2C2CCCCC2)c(F)c1 [Example 68] | < 0.05 µg/mL | – | > 100 µg/mL | 0.39 µg/mL (≈ 1.03 µM) | 0.78 µg/mL (≈ 2.06 µM) | < 0.05 µg/mL | < 0.05 µg/mL |
| COc1cc(F)c(-c2c(OC)nc3ncnn3c2C2CCCCC2)c(F)c1 [Example 69] | < 0.05 µg/mL | – | > 100 µg/mL | 1.56 µg/mL (≈ 4.17 µM) | 3.13 µg/mL (≈ 8.36 µM) | < 0.05 µg/mL | < 0.05 µg/mL |
| Fc1cc(F)c(-c2c(Cl)nc3ncnn3c2[C@H]2CC[C@@H](F)CC2)c(F)c1 [Example 71] | < 0.05 µg/mL | – | > 100 µg/mL | 0.78 µg/mL (≈ 2.03 µM) | 6.25 µg/mL (≈ 16.2 µM) | 0.2 µg/mL (≈ 0.52 µM) | < 0.05 µg/mL |
| COc1cc(F)c(-c2c(Cl)nc3ncnn3c2C2CC=CCC2)c(F)c1 (centres unmarked) [Example 74] | < 0.05 µg/mL | – | > 100 µg/mL | 0.78 µg/mL (≈ 2.07 µM) | 0.39 µg/mL (≈ 1.04 µM) | < 0.05 µg/mL | < 0.05 µg/mL |
| COc1nc2ncnn2c([C@H]2CC[C@@H](F)CC2)c1-c1c(F)cc(F)cc1F [Example 75] | 0.39 µg/mL (≈ 1.03 µM) | – | > 100 µg/mL | 12.5 µg/mL (≈ 32.9 µM) | > 100 µg/mL | 6.25 µg/mL (≈ 16.4 µM) | 1.56 µg/mL (≈ 4.1 µM) |
| CC(=O)OC1CCC(c2c(-c3c(F)cc(F)cc3F)c(Cl)nc3ncnn23)CC1 (centres unmarked) [Example 84] | 3.13 µg/mL (≈ 7.37 µM) | – | > 100 µg/mL | 12.5 µg/mL (≈ 29.4 µM) | 100 µg/mL (≈ 235 µM) | 12.5 µg/mL (≈ 29.4 µM) | 3.13 µg/mL (≈ 7.37 µM) |
| COc1cc(F)c(-c2c(Cl)nc3ncnn3c2C2CCC(OC(C)=O)CC2)c(F)c1 (centres unmarked) [Example 85] | 0.78 µg/mL (≈ 1.79 µM) | – | 25 µg/mL (≈ 57.2 µM) | 6.25 µg/mL (≈ 14.3 µM) | > 100 µg/mL | 1.56 µg/mL (≈ 3.57 µM) | 0.78 µg/mL (≈ 1.79 µM) |
| COc1cc(F)c(-c2c(Cl)nc3ncnn3c2[C@H]2CC[C@@H](F)CC2)c(F)c1 [Example 87] | < 0.05 µg/mL | – | > 100 µg/mL | 0.39 µg/mL (≈ 0.983 µM) | > 100 µg/mL | < 0.05 µg/mL | < 0.05 µg/mL |
| COc1cc(F)c(-c2c(OC)nc3ncnn3c2[C@H]2CC[C@@H](F)CC2)c(F)c1 [Example 89] | < 0.05 µg/mL | – | > 100 µg/mL | 6.25 µg/mL (≈ 15.9 µM) | 12.5 µg/mL (≈ 31.9 µM) | 1.56 µg/mL (≈ 3.98 µM) | < 0.05 µg/mL |
| CCCc1c(-c2c(F)cc(OC)cc2F)c(Cl)nc2ncnn12 [Example 93] | < 0.05 µg/mL | – | 100 µg/mL (≈ 295 µM) | 6.25 µg/mL (≈ 18.5 µM) | 0.39 µg/mL (≈ 1.15 µM) | 0.2 µg/mL (≈ 0.59 µM) | 0.2 µg/mL (≈ 0.59 µM) |
| COc1cc(F)c(-c2c(Cl)nc3ncnn3c2CC(C)C)c(F)c1 [Example 94] | < 0.05 µg/mL | – | > 100 µg/mL | 3.13 µg/mL (≈ 8.87 µM) | 0.2 µg/mL (≈ 0.567 µM) | 0.2 µg/mL (≈ 0.567 µM) | 0.1 µg/mL (≈ 0.283 µM) |
| COc1cc(F)c(-c2c(Cl)nc3ncnn3c2C2CCCO2)c(F)c1 (centres unmarked) [Example 95] | 0.1 µg/mL (≈ 0.273 µM) | – | 100 µg/mL (≈ 273 µM) | 3.13 µg/mL (≈ 8.53 µM) | 3.13 µg/mL (≈ 8.53 µM) | 0.78 µg/mL (≈ 2.13 µM) | 0.2 µg/mL (≈ 0.545 µM) |
| CCCCc1c(-c2c(F)cc(OC)cc2F)c(Cl)nc2ncnn12 [Example 96] | < 0.05 µg/mL | – | > 100 µg/mL | 3.13 µg/mL (≈ 8.87 µM) | 0.78 µg/mL (≈ 2.21 µM) | 0.1 µg/mL (≈ 0.283 µM) | < 0.05 µg/mL |
| COc1cc(F)c(-c2c(Cl)nc3ncnn3c2C2CCCC2)c(F)c1 [Example 97] | 0.1 µg/mL (≈ 0.274 µM) | – | > 100 µg/mL | 6.25 µg/mL (≈ 17.1 µM) | 0.39 µg/mL (≈ 1.07 µM) | 0.2 µg/mL (≈ 0.548 µM) | < 0.05 µg/mL |
| CCCc1c(-c2c(F)cc(OC)cc2F)c(OC)nc2ncnn12 [Example 98] | 0.2 µg/mL (≈ 0.598 µM) | – | > 100 µg/mL | 100 µg/mL (≈ 299 µM) | 1.56 µg/mL (≈ 4.67 µM) | 3.13 µg/mL (≈ 9.36 µM) | 1.56 µg/mL (≈ 4.67 µM) |
| COc1cc(F)c(-c2c(OC)nc3ncnn3c2C2CCCC2)c(F)c1 [Example 99] | 0.39 µg/mL (≈ 1.08 µM) | – | > 100 µg/mL | > 100 µg/mL | 1.56 µg/mL (≈ 4.33 µM) | 0.78 µg/mL (≈ 2.16 µM) | 0.39 µg/mL (≈ 1.08 µM) |
| COc1cc(F)c(-c2c(OC)nc3ncnn3c2CC(C)C)c(F)c1 [Example 100] | < 0.05 µg/mL | – | > 100 µg/mL | > 100 µg/mL | 1.56 µg/mL (≈ 4.48 µM) | 0.78 µg/mL (≈ 2.24 µM) | 0.39 µg/mL (≈ 1.12 µM) |
